Test results from PubChem BioAssay AID248 (DTP/NCI, 2004).
Values joined by “and” are separate entries in the source; they are usually repeats but may differ in a detail not shown here. Equal values may be shown once. Toxic doses and inconclusive results are not listed. Rule as the data show it: active = T/C of 150% or more; inactive = T/C below 125%.

System: L1210 leukemia ip in BDF1 mice, survival T/C
Assay: NCI In Vivo Anticancer Drug Screen. Data for tumor model L1210 Leukemia (intraperitoneal) in B6D2F1 (BDF1) mice
Details: endpoint: mean survival time, higher = longer survival
Procedure, shortened: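 Antitumor effect is assessed in tumor-bearing animals. Survival in the compound arm is compared with a vehicle-dosed control arm and expressed as their quotient.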

[1] = dose: 100.0 mg/kg/injection, schedule: Q04DX002 (ip), vehicle: Klucel (hydroxypropylcellulose) (HPC)
[2] = dose: 200.0 mg/kg/injection, schedule: Q04DX002 (ip), vehicle: Klucel (hydroxypropylcellulose) (HPC)
[3] = dose: 400.0 mg/kg/injection, schedule: Q04DX002 (ip), vehicle: Klucel (hydroxypropylcellulose) (HPC)
[4] = dose: 50.0 mg/kg/injection, schedule: Q01DX009 (ip), vehicle: saline with Tween-80
[5] = dose: 100.0 mg/kg/injection, schedule: Q01DX009 (ip), vehicle: saline with Tween-80
[6] = dose: 200.0 mg/kg/injection, schedule: Q01DX009 (ip), vehicle: saline with Tween-80
[7] = dose: 100.0 mg/kg/injection, schedule: Q01DX001 (ip), vehicle: saline
[8] = dose: 200.0 mg/kg/injection, schedule: Q01DX001 (ip), vehicle: saline

Measured: T/C

Fc1c(F)c(F)c(-c2ccccc2)c(F)c1F
inactive: dose: 25.6 mg/kg/injection, schedule: Q04DX002 (ip), vehicle: saline with Tween-80 92 % of control | dose: 64.0 mg/kg/injection, schedule: Q04DX002 (ip), vehicle: saline with Tween-80 95 % of control | dose: 160.0 mg/kg/injection, schedule: Q04DX002 (ip), vehicle: saline with Tween-80 95 % of control | dose: 400.0 mg/kg/injection, schedule: Q04DX002 (ip), vehicle: saline with Tween-80 95 % of control

Cc1ccc(C)c(NCC(=O)NN)c1
inactive: [1] 103 % of control | [2] 100 % of control | [3] 100 % of control

COC(=O)c1[nH]nc(-c2ccccc2-c2ccccc2C(=O)O)c1C(=O)OC
inactive: [1] 97 % of control | [2] 108 % of control | [3] 105 % of control

Cc1ncc2c(n1)NC(c1ccc(Cl)cc1)=NC2
inactive: dose: 75.0 mg/kg/injection, schedule: Q01DX001 (ip), vehicle: other 91 % of control | dose: 150.0 mg/kg/injection, schedule: Q01DX001 (ip), vehicle: other 100 % of control | dose: 300.0 mg/kg/injection, schedule: Q01DX001 (ip), vehicle: other 96 % of control

Cc1[nH]c2ccccc2c1C(c1ccccc1O)c1c(C)[nH]c2ccccc12
inactive: dose: 100.0 mg/kg/injection, schedule: Q01DX009 (ip), vehicle: Klucel (hydroxypropylcellulose) (HPC) 97 % of control | dose: 200.0 mg/kg/injection, schedule: Q01DX009 (ip), vehicle: Klucel (hydroxypropylcellulose) (HPC) 103 % of control | dose: 400.0 mg/kg/injection, schedule: Q01DX009 (ip), vehicle: Klucel (hydroxypropylcellulose) (HPC) 101 % of control

C=CC[N+](CC=C)(CC=C)CC[N+](CC=C)(CC=C)CC=C
inactive: dose: 6.25 mg/kg/injection, schedule: Q01DX009 (ip), vehicle: water 109 % of control | dose: 12.5 mg/kg/injection, schedule: Q01DX009 (ip), vehicle: water 111 % of control | dose: 25.0 mg/kg/injection, schedule: Q01DX009 (ip), vehicle: water 96 % of control and 90 % of control | dose: 50.0 mg/kg/injection, schedule: Q01DX009 (ip), vehicle: water 106 % of control and 87 % of control and 89 % of control | dose: 100.0 mg/kg/injection, schedule: Q01DX009 (ip), vehicle: water 100 % of control

OC(c1nc2ccccc2[nH]1)C(O)c1nc2ccccc2[nH]1 (stereo not drawn)
inactive: dose: 75.0 mg/kg/injection, schedule: Q01DX001 (ip), vehicle: saline 102 % of control | dose: 150.0 mg/kg/injection, schedule: Q01DX001 (ip), vehicle: saline 109 % of control | dose: 300.0 mg/kg/injection, schedule: Q01DX001 (ip), vehicle: saline 102 % of control

Cn1c(/C=C/c2ccccc2)c([N+](=O)[O-])c(=O)n(C)c1=O
inactive: [4] 106 % of control | [5] 98 % of control | [6] 98 % of control

O=C1OCc2cc3ccccc3nc21
inactive: [5] 94 % of control | dose: 100.0 mg/kg/injection, schedule: Q04DX003 (ip), vehicle: saline with Tween-80 105 % of control | [6] 97 % of control | dose: 200.0 mg/kg/injection, schedule: Q04DX003 (ip), vehicle: saline with Tween-80 105 % of control | dose: 400.0 mg/kg/injection, schedule: Q01DX009 (ip), vehicle: saline with Tween-80 92 % of control | dose: 400.0 mg/kg/injection, schedule: Q04DX003 (ip), vehicle: saline with Tween-80 96 % of control

Cc1noc(N)c1[N+](=O)[O-]
inactive: dose: 12.5 mg/kg/injection, schedule: Q01DX009 (ip), vehicle: saline 97 % of control | dose: 25.0 mg/kg/injection, schedule: Q01DX009 (ip), vehicle: saline 109 % of control | dose: 50.0 mg/kg/injection, schedule: Q01DX009 (ip), vehicle: saline 97 % of control | dose: 100.0 mg/kg/injection, schedule: Q01DX009 (ip), vehicle: saline 86 % of control | dose: 100.0 mg/kg/injection, schedule: Q04DX003 (ip), vehicle: other 92 % of control | dose: 200.0 mg/kg/injection, schedule: Q04DX003 (ip), vehicle: other 96 % of control | dose: 400.0 mg/kg/injection, schedule: Q04DX003 (ip), vehicle: other 92 % of control

C=C(Br)CNC1CCC(CCCC)CC1 (stereo not drawn)
inactive: dose: 50.0 mg/kg/injection, schedule: Q04DX003 (ip), vehicle: Klucel (hydroxypropylcellulose) (HPC) 106 % of control | dose: 100.0 mg/kg/injection, schedule: Q01DX001 (ip), vehicle: Klucel (hydroxypropylcellulose) (HPC) 98 % of control | dose: 100.0 mg/kg/injection, schedule: Q04DX003 (ip), vehicle: Klucel (hydroxypropylcellulose) (HPC) 102 % of control | dose: 200.0 mg/kg/injection, schedule: Q01DX001 (ip), vehicle: Klucel (hydroxypropylcellulose) (HPC) 98 % of control | dose: 200.0 mg/kg/injection, schedule: Q04DX003 (ip), vehicle: Klucel (hydroxypropylcellulose) (HPC) 93 % of control | dose: 400.0 mg/kg/injection, schedule: Q01DX001 (ip), vehicle: Klucel (hydroxypropylcellulose) (HPC) 98 % of control

CC(=O)N/N=C/C=C/c1ccccc1
inactive: dose: 25.0 mg/kg/injection, schedule: Q01DX009 (ip), vehicle: saline with Tween-80 95 % of control | [4] 103 % of control

CCC(CC)(COC(C)=O)C[N+](C)(C)C
inactive: [7] 103 % of control | dose: 100.0 mg/kg/injection, schedule: Q04DX003 (ip), vehicle: saline 94 % of control | [8] 95 % of control | dose: 200.0 mg/kg/injection, schedule: Q04DX003 (ip), vehicle: saline 102 % of control

NC(C(=O)O)c1cccc(F)c1 (stereo not drawn)
inactive: dose: 50.0 mg/kg/injection, schedule: Q01DX001 (ip), vehicle: saline 98 % of control | [7] 101 % of control | [8] 101 % of control | dose: 400.0 mg/kg/injection, schedule: Q01DX001 (ip), vehicle: saline 95 % of control

CN(Cc1ccccc1)c1ccc(SC#N)cc1
inactive: [7] 98 % of control | [8] 104 % of control
